ChEMBL document CHEMBL1255445, “Evaluation of nucleoside hydrolase inhibitors for treatment of African trypanosomiasis” (Antimicrob Agents Chemother, 2010)
Calls of active or inactive are those of the source.

Columns and labels:
[1] = Inhibition of Trypanosoma brucei brucei Inosine guanosine nucleoside hydrolase
[2] = Inhibition of Trypanosoma vivax Inosine-adenosine-guanosine-nucleoside hydrolase
[3] = system: Trypanosoma brucei brucei; test: Antitrypanosomal activity against suramin sensitive Trypanosoma brucei brucei Lister 427 assessed as reduction in parasite growth after 3 days by fluorometrically; type: functional, organism-based; details: Lister 427, 72 h
[4] = Inhibition of Trypanosoma brucei brucei inosine-adenosine-guanosine nucleoside hydrolase (IAG-NH)
[5] = Cytotoxicity against human MRC5 SV2 cells after 48 hrs; type: cell-based; details: MRC5, 48 h
[6] = Inhibition of Trypanosoma brucei brucei Lister 427 Nucleoside transporter P1 by scintillation counting
[7] = system: Trypanosoma cruzi; test: Antitrypanosomal activity against Trypanosoma cruzi Tulahuen CL2 s-galactosidase strain assessed as reduction in parasite growth after 3 days by fluorometrically; type: functional, organism-based
[8] = Inhibition of human purine nucleoside phosphorylase
[9] = system: Plasmodium falciparum; test: Antiparasitic activity against chloroquine-sensitive Plasmodium falciparum Ghana assessed as reduction in parasite growth after 3 days by fluorimetry; type: functional, organism-based
[10] = system: Leishmania infantum; test: Antileishmanial activity against Leishmania infantum MHOM/MA/67/ITMAP263 intracellular amastigotes assessed as reduction in parasite growth after 3 days by fluorometrically; type: functional, organism-based
[11] = Inhibition of Trypanosoma brucei brucei Lister 427 Nucleoside/nucleobase transporter P2 transporter by scintillation counting
[12] = system: Trypanosoma brucei rhodesiense; test: Antitrypanosomal activity against Trypanosoma brucei rhodesiense assessed as reduction in parasite growth after 3 days by fluorometrically; type: functional, organism-based; details: 72 h
[13] = system: Trypanosoma brucei brucei; test: Antitrypanosomal activity against suramin sensitive Trypanosoma brucei brucei Lister 427 assessed as reduction in parasite growth at > 5 uM by Alamar blue assay; type: functional, organism-based
[14] = system: Trypanosoma brucei brucei; test: Antitrypanosomal activity against suramin sensitive Trypanosoma brucei brucei Lister 427 infected in Swiss Webster mouse assessed as parasite clearance in blood at 50 mg/kg treated orally for 1 day followed by intraperitoneally for 4 days measured on 21 days post-infection; type: functional, organism-based; parameters: dose 50 mg/kg
[15] = system: Trypanosoma brucei brucei; test: Antitrypanosomal activity against suramin sensitive Trypanosoma brucei brucei Lister 427 infected in Swiss Webster mouse assessed as parasite clearance in blood at 50 mg/kg treated orally for 1 day followed by intraperitoneally for 4 days measured on 14 days post-infection; type: functional, organism-based; parameters: dose 50 mg/kg
[16] = system: Trypanosoma brucei brucei; test: Antitrypanosomal activity against suramin sensitive Trypanosoma brucei brucei Lister 427 assessed as parasite killing at 1 uM after 24 hrs; type: functional, organism-based
[17] = system: Trypanosoma brucei brucei; test: Antitrypanosomal activity against suramin sensitive Trypanosoma brucei brucei Lister 427 assessed as parasite killing at 0.25 uM within 5 hrs; type: functional, organism-based
[18] = Inhibition of Trypanosoma brucei brucei Lister 427 H2 transporter by scintillation counting
[19] = system: Trypanosoma brucei brucei; test: Antitrypanosomal activity against suramin sensitive Trypanosoma brucei brucei Lister 427 infected in Swiss Webster mouse assessed as mouse survival at 50 mg/kg treated 1 day po and for 4 days in ip measured on 21 days after infectio; type: functional
[20] = system: Trypanosoma brucei brucei; test: Antitrypanosomal activity against suramin sensitive Trypanosoma brucei brucei Lister 427 assessed as parasite killing at 10 uM after 48 hrs; type: functional
[21] = system: Trypanosoma brucei brucei; test: Antitrypanosomal activity against suramin sensitive Trypanosoma brucei brucei Lister 427 assessed as reduction in viability and mortality up to 20 uM over 7 hrs by in vitro lysis assay; type: functional, organism-based
[22] = system: Trypanosoma brucei brucei; test: Antitrypanosomal activity against suramin sensitive Trypanosoma brucei brucei Lister 427 infected in Swiss Webster mouse assessed as parasite clearance in blood at 50 mg/kg treated orally for 1 day followed by intraperitoneally for 4 days measured on 10 days post-infection; type: functional, organism-based; parameters: dose 50 mg/kg

Row | SMILES | Ki [1] [µM] | Ki [2] [µM] | IC50 [3] [µM] | Ki [4] [µM] | Ki [6] [µM] | Ki [8] [µM] | IC50 [5] [µM] | Activity [7] | Activity [9] | Activity [10] | other results
1 | Nc1ncnc2c(CN3C[C@H](O)[C@H](O)[C@H]3CO)csc12 | 31 | 0.019 | > 64 | 0.056 | 540 | 1000 | > 64 | inactive | inactive | inactive | Ki [11]: 125 µM
2 | Nc1nc2c(CN3C[C@H](O)[C@H](O)[C@H]3CO)cccc2s1 | 14 | 0.04 | > 64 | 0.56 | 810 | > 1000 | > 64 | inactive | inactive | inactive | 
3 | Nc1ncnc2c(CN3C[C@H](O)[C@H](O)[C@H]3CO)c[nH]c12 | 32 | 0.0041 | 0.49 | 0.018 | 360 | 22.5 | > 64 | inactive | inactive | inactive | IC50 [12]: 0.26 µM; Activity [13]: Active; Activity [14]: Active; Activity [15]: Active; Activity [16]: Active; Activity [17]: Active; Ki [18]: 590 µM; Activity [19]: 75%; Ki [11]: 8.2 µM; Activity [20]: 75%; Activity [21]: inactive; Activity [22]: Active
4 | OC[C@@H]1[C@@H](O)[C@@H](O)CN1Cc1cccc2cncnc12 |  | 0.058 | > 64 |  |  | > 1000 | > 64 | inactive | inactive | inactive | 
5 | O=c1[nH]cnc2c(CN3C[C@H](O)[C@H](O)[C@H]3CO)csc12 | 120 | 0.02 | > 34 | 0.19 | 300 | 77.6 | > 64 | inactive | inactive | inactive | 
6 | COc1ccnc2c(CN3C[C@H](O)[C@H](O)[C@H]3CO)cccc12 |  | 0.029 | > 64 |  |  | > 1000 | > 64 | inactive | inactive | inactive | 
7 | O=c1[nH]cnc2c([C@@H]3N[C@H](CO)[C@@H](O)[C@H]3O)c[nH]c12 [FORODESINE] | 0.009 | 0.0062 | > 64 | 0.024 |  |  | > 64 | inactive | inactive | inactive | 

Further molecules by falling Ki [2], results first:

Row | Ki [1] [µM] | Ki [2] [µM] | IC50 [3] [µM] | Ki [4] [µM] | Ki [6] [µM] | Ki [8] [µM] | SMILES | IC50 [5] [µM] | Activity [7] | Activity [9] | Activity [10] | other results
8 | 11 | 0.011 | > 64 | 0.446 |  | > 1000 | OC[C@@H]1[C@@H](O)[C@@H](O)CN1Cc1cccc2cccnc12 | > 64 | inactive | inactive | inactive | 
9 | 0.0044 | 0.0062 | > 64 | 0.0009 |  | > 10 | Nc1ncnc2c(C3N[C@H](CO)[C@@H](O)[C@H]3O)c[nH]c12 (stereo partly drawn) [IMMUCILLIN A] | > 64 | inactive | inactive | inactive | 
10 | 138 | 0.0044 | > 64 | 0.03 | > 1000 | 0.0058 | OC[C@@H]1[C@@H](O)[C@@H](O)CN1Cc1c[nH]c2c(O)ncnc12 | > 64 | inactive | inactive | inactive | 
